{"source": "patent US20240182526A1", "about": "“COMPOSITIONS AND METHODS FOR MODULTING INFLAMMATORY AND DEGENERATIVE DISORDER” (University of Southern California, priority 2021, published 2024)", "key": {"[1]": {"tested_on": "ADAMTS4/5, MMP13, COL2 and ACAN transcription", "assay": "qPCR of catabolic and anabolic genes in human adult OA articular chondrocytes", "format": "cell-based", "settings": "48 hours", "procedure": "(§1) Quantitative Real-Time PCR. Power SYBR Green (Applied Biosystems) RT-PCR amplification and detection was performed using an Applied Biosystems Step One Plus Real-Time PCR machine. The comparative Ct method for relative quantification (2-ΔΔCt) was used to quantitate gene expression. TBP (TATA-box binding protein) was used for gene normalization and expressed relative to a calibrator (sample in each set with lowest expression). Q-PCR for was conducted using the following primers: human: TBP forward, 5′ GATGGACGTTCGGTTTAGG 3′ (SEQ ID NO:28); TBP reverse, 5′ AGCAGCACAGTACGAGCAA 3′ (SEQ ID NO:29), MMP13 forward, 5′ […] 3′(SEQ ID NO:30); MMP13 reverse, 5′ GAACCCCGCATCTTGGCTT 3′ (SEQ ID NO:31), ADAMTS5 forward 5′ […] 3′ (SEQ ID NO:32); ADAMTS5 reverse, 5′ […] 3′ (SEQ ID NO:33), ADAMTS4 forward 5′ […] 3′ (SEQ ID NO:34); ADAMTS4 reverse, 5′ […] 3′ (SEQ ID NO:35), Collagen II forward, 5′ […] 3′ (SEQ ID NO:36); Collagen II reverse 5′ […] 3′ (SEQ ID NO:37); Aggrecan forward, 5′ AGGCAGCGTGATCCTTACC 3′ (SEQ ID NO:38); Aggrecan reverse, 5′ […] 3′ (SEQ ID NO:39). Cells were treated with 10 ng/mL OSM and/or with 5 μM SRC (SU6656) inhibitor, 10 ng/mL OSM and/or 50 ng/mL WT/F814 plasmids; 10 ng/mL OSM and/or 100 or 300 ug/mL of peptide QQpYF (Evseenko lab, Thermo Scientific); 10 uM R805 and/or 10 ng/mL OSM."}, "pSRC [2]": {"tested_on": "pSRC", "assay": "Western blot of pSRC in pig articular chondrocytes", "format": "cell-based", "settings": "for protein levels of pSRC after OSM stimulation: pig articular chondrocytes, 4 and 24 hours", "procedure": "(§2) For standard western blot, treated and non-treated cells were lysed in RIPA Lysis and Extraction Buffer (Pierce, Rockford, IL) containing protease inhibitors (Pierce) followed by sonication with a 15-second pulse at a power output of 2 using the VirSonic 100 (SP Industries Company, Warminster, PA). Protein concentrations were determined by BCA protein assay (Pierce). Proteins were resolved with SDS-PAGE utilizing 4-15% Mini-PROTEAN TGX Precast Gels and transferred to Trans-Blot Turbo Transfer Packs with a 0.2-μm pore-size nitrocellulose membrane. The SDS-PAGE running buffer, 4-15% Mini-PROTEAN TGX Precast Gels, Trans-Blot Turbo Transfer Packs with a 0.2-μm pore-size nitrocellulose membrane was purchased from Biorad (Hercules, CA). Nitrocellulose membranes were blocked in 5% nonfat milk in 0.05% (v/v) Tween 20 (PBST) (Corning, Manassas, VA). Membranes were then incubated with primary antibodies p-gp130 Y814 (Evseenko lab, AbClonal), p-AKT (cat #4060, Cell Signaling), p-ERK 1/2 (cat #9106, Cell Signaling), p-Y416-SRC (cat #1246F, Novus Biologicals), p-gp130 (cat #1453R, Bioss USA) and p-NFκBp65 (cat #8242, Cell Signaling), and/or YAP1 (cat #4912, Cell Signaling). Histone H3 (cat #9515, Cell Signaling) was used as loading control. After washing in PBS containing 0.05% (v/v) Tween 20 (PBST), membranes were incubated with rabbit (cat #31460, Thermo Scientific) or mouse IgG-HRP (cat #31430, Thermo Scientific) secondary antibodies. After washing, membranes were developed with the Clarity Western ECL Blotting Substrate (Hercules, CA). Quantification of blots was performed using ImageJ 1.44 followed by Prism9 for analysis.\n(§3) The studies delineate that gp130 Y814 regulates SRC downstream signaling; since SRC is known to associate with gp130, it was hypothesized that gp130 and SRC are capable of physically interacting on Y814 and hindering this interaction will prevent SRC from signaling. In order to impede this interaction, experiments were performed using an innovative peptide library screen with short and overlapping peptides mimicking the motif of gp130 around Y814 that were individually tested for pSRC downregulation; these peptides ranged from 4-15 amino acids. The peptides contained a protein sequence stretch of consecutive amino acids surrounding gp130 Y814 residue. To test their efficacy, pig articular chondrocytes were stimulated with or without OSM in presence or absence of the peptides followed by co-immunoprecipitation to determine interaction and western blot detecting pSRC activity. […] Due to sequence specificity, the peptide is capable of discriminating among other gp130 regions serving as a competitive inhibitor."}, "[3]": {"tested_on": "cleaved ACAN and COL2 neoepitopes", "assay": "Neoepitope assay on pig articular cartilage explants stimulated with OSM", "format": "cell-based", "settings": "72 hours, normalized to wet weight", "procedure": "Neoepitope analysis. WT and F814 mouse articular cartilage explants were treated with or without OSM (10 ng/mL). Pig articular cartilage explants were stimulated with or without OSM (10 ng/mL) and treated with or without peptide QQpYF (100 μg/mL or 300 μg/mL). For R805 treatment, pig articular cartilage explants were stimulated with or without OSM (10 ng/mL) and treated with or without R805 (0.01, 0.1, 1 or 10 μM). The explants were then digested for 2 hr at 37° C. with 0.01 units chondroitinase ABC (Sigma Aldrich, St. Louis, MO). Samples were then dialyzed with ultrapure water for 24 hr at 4° C., freeze dried, dissolved in RIPA Lysis and Extraction Buffer (Pierce, IL) containing protease inhibitors (Pierce) followed by sonication. Proteins were separated and analyzed by Western blot using primary antibodies against aggrecan (cat #NB100-74350, Novus Biologicals,) and collagen II neoepitopes (cat #50-1035, Ibex). Wet weight of explants was used as loading control."}, "gp130 and pSRC": {"tested_on": "gp130 and pSRC", "assay": "Co-immunoprecipitation of complex formation between gp130 and pSRC in pig articular chondrocytes", "format": "cell-based", "settings": "pig articular chondrocytes with or without OSM, 4 and 24 hours", "procedure": "IP Western, SDS-PAGE and Western blot analysis. For transfections of gp130 wild type (WT) (InVivoGen) and gp130 mutant plasmids (Thermo Scientific), cells were plated 24 h prior to transfection to produce monolayers that were 60% confluent and these were transfected by using Turbo DNAfectin 3000 (cat #G3000, Lambda Biotech) according to the manufacturer's protocol. 72h after transfection, cells were maintained in DMEM (10% FBS, 1% PSA) and were either left untreated or were stimulated with IL-6 (10 ng/mL) and/or OSM (10 ng/mL) for 24 h before cell harvest and protein extraction. For immunoprecipitation assays, cell lysates were incubated with Protein G Agarose (cat #20398, Pierce) and anti-Flag antibody (cat #2368, Cell Signaling) at 4° C. overnight. The immune complexes were sedimented, washed and separated by SDS-PAGE (see below) and further analyzed by Western blot using p-SRC (pY416-SRC) (cat #1246F, Novus Biologicals) or NEMO (cat #18474-1-AP, Proteintech) antibodies and normalized to gp130 (cat #bs-1459R, Bioss) or total SRC (cat #2123, Cell Signaling). For R805 treatment, the immune complexes were sedimented, washed and separated by SDS-PAGE and further analyzed by Western blot using OSMR (cat #ab85575, Abcam), LIFR (Santa cat #515337, Cruz Biotechnology) or p-SRC (pY416-SRC) (Novus Biologicals, cat #1246F). Histone H3 (cat #9715, Cell Signaling), gp130 (cat #bs-1459R, Bioss), total SRC (cat #2123, Cell Signaling) or Flag antibody (cat #14739, Cell Signaling) were used as loading controls.\nas §3"}, "pNF-κB p65": {"tested_on": "pNF-κB p65", "assay": "Western blot of pNF-κB p65 in pig articular chondrocytes", "format": "cell-based", "settings": "for protein levels of pNF-κB p65 after OSM stimulation: pig articular chondrocytes, 24 hours", "procedure": "as §2"}, "pSRC [4]": {"target": "T1, pSRC (Homo sapiens, UniProt P12931)", "T1 construct": "from tissue; host or cells: human synovium", "assay": "Western blot of pSRC in human synovium stimulated with OSM", "format": "cell-based", "settings": "with or without OSM, 24 hours", "procedure": "as §2, with “After washing in PBS containing 0.05% (v/v) Tween 20 (PBST), membranes were incubated with rabbit (cat #31460, Thermo Scientific) or mouse IgG-HRP (cat #31430, Thermo Scientific) secondary antibodies. After washing, membranes were developed with the Clarity Western ECL Blotting Substrate (Hercules, CA).” left out"}, "pNF-kB p65": {"tested_on": "pNF-kB p65", "assay": "Western blot of pNF-kB p65 in human synovium stimulated with OSM", "format": "cell-based", "settings": "with or without OSM, 24 hours", "procedure": "as §2, with “After washing in PBS containing 0.05% (v/v) Tween 20 (PBST), membranes were incubated with rabbit (cat #31460, Thermo Scientific) or mouse IgG-HRP (cat #31430, Thermo Scientific) secondary antibodies. After washing, membranes were developed with the Clarity Western ECL Blotting Substrate (Hercules, CA).” left out"}, "[5]": {"tested_on": "ADAMTS4, ADAMTS5 and MMP13 transcription", "assay": "qPCR of matrix-degrading genes in OSM-stimulated pig articular chondrocytes", "format": "cell-based", "settings": "48 hours", "procedure": "as §1"}, "gp130 receptor signaling": {"tested_on": "gp130 receptor signaling", "settings": "previous studies; cited from earlier work"}, "[6]": {"tested_on": "adult and pig articular cartilage", "settings": "cited from earlier work"}, "[7]": {"tested_on": "rat medial meniscectomy and cartilage surface injury models", "settings": "cited from earlier work"}, "[8]": {"settings": "pig articular chondrocytes treated with peptides for 24 hours, no OSM"}}, "note": "“Also recorded” adds a separate entry of the source. Where no end group is shown, it is not given here. [ ]: non-standard residue; d: D form. pY = N[C@@H](Cc1ccc(OP(=O)(O)O)cc1)C(=O)O", "data": [{"compound": "QQ(PY)F (QQYF) [Peptide P2A, 4 amino acid SRC-targeting interfering peptide, Gln-Gln-phosphoTyr-Phe]", "values": [{"measurement": "biosynthesis (COL2 and ACAN transcription), qPCR", "setting": "[1]", "result": "promotes biosynthesis"}, {"measurement": "transcription of catabolic enzymes (ADAMTS4/5 and MMP13), qPCR", "setting": "[1]", "result": "decreased transcription of catabolic enzymes; also recorded: inhibits transcription of matrix degrading genes"}, {"measurement": "biosynthesis (COL2 and ACAN transcription), qPCR", "setting": "[1]; listed as QQpYF", "result": "increased"}, {"measurement": "transcription of catabolic enzymes (ADAMTS4/5 and MMP13), qPCR", "setting": "[1]; listed as QQpYF", "result": "markedly lower"}, {"measurement": "protein levels of pSRC after OSM stimulation", "setting": "pSRC [2]", "result": "decreasing SRC and NF-κB activation; also recorded: significant effect on decreasing SRC and NF-κB signaling; also recorded: inhibits SRC activity"}, {"measurement": "protein levels of pSRC after OSM stimulation", "setting": "pSRC [2]; listed as QQ[pY]F", "result": "decreasing pSRC activation"}, {"measurement": "protein levels of pSRC after OSM stimulation", "setting": "pSRC [2]; listed as QQpYF", "result": "inhibits activation of SRC downstream of gp130"}, {"measurement": "matrix degeneration: levels of cleaved ACAN and COL2 neoepitopes", "setting": "[3]", "result": "prevented matrix degeneration in pig cartilage explants; also recorded: sustained prevention of catabolism; also recorded: prevents degeneration in pig cartilage explants; also recorded: dose dependent"}, {"measurement": "matrix degeneration: levels of cleaved ACAN and COL2 neoepitopes", "setting": "[3]; listed as QQpYF", "result": "decrease of aggrecanase and collagenase activity"}, {"measurement": "complex formation between gp130 and pSRC (gp130-SRC interaction)", "setting": "gp130 and pSRC", "result": "most efficacious at physically hindering gp130-SRC protein-protein interaction"}, {"measurement": "complex formation between gp130 and pSRC (gp130-SRC interaction)", "setting": "gp130 and pSRC; listed as QQ[pY]F", "result": "most efficacious at physically hindering gp130-SRC protein-protein interaction"}, {"measurement": "complex formation between gp130 and pSRC (gp130-SRC interaction)", "setting": "gp130 and pSRC; listed as QQpYF", "result": "prevents physical interaction of gp130 and SRC"}, {"measurement": "protein levels of pNF-κB p65 after OSM stimulation", "setting": "pNF-κB p65", "result": "decreasing SRC and NF-κB activation; also recorded: significant effect on decreasing SRC and NF-κB signaling"}]}, {"compound": "PRQQ[pY]FKQ [Peptide 5]", "values": [{"measurement": "endogenous protein levels of phosphorylated c-SRC (pSRC)", "setting": "pSRC [2]; [8]", "result": "inhibits endogenous SRC and NF-kB protein expression"}, {"measurement": "protein levels of pSRC", "setting": "pSRC [4]", "result": "inhibits SRC and NF-kB protein expression"}, {"measurement": "protein levels of pNF-kB p65", "setting": "pNF-kB p65", "result": "inhibits SRC and NF-kB protein expression"}, {"measurement": "endogenous protein levels of NF-kB p65", "setting": "pNF-κB p65; [8]", "result": "inhibits endogenous SRC and NF-kB protein expression"}]}, {"compound": "CN(C)S(=O)(=O)c1ccc2c(c1)/C(=C/c1cc3c([nH]1)CCCC3)C(=O)N2", "note": "[SU6656, reference compound]", "values": [{"measurement": "OSM-induced transcription of matrix-degrading genes (ADAMTS4, ADAMTS5, MMP13), qPCR", "setting": "[5]", "result": "can be blocked by SRC inhibition"}, {"measurement": "protein levels of pNF-κB p65 after OSM stimulation", "setting": "pNF-κB p65", "result": "can be blocked by SRC inhibition"}]}, {"compound": "Brc1ccc(Nc2nc(-c3ccccc3)cs2)cc1", "note": "[RCGD 423]", "values": [{"measurement": "STAT3 signaling and downstream MYC", "setting": "gp130 receptor signaling", "result": "highly activate STAT3 signaling and its downstream target, proto-oncogene MYC"}, {"measurement": "activation of MAPK/ERK and NF-κB pathways", "setting": "gp130 receptor signaling", "result": "prevents activation of MAPK/ERK and NF-κB pathways"}, {"measurement": "articular cartilage degeneration", "setting": "[6]", "result": "protects adult and pig articular cartilage from degeneration"}, {"measurement": "cartilage regeneration", "setting": "[7]", "result": "promotes cartilage regeneration"}]}]}
